In patent publication US11076595B2, “1-(n,n-disubstituted carbamoyl) 4-(substituted sulfonyl)triazolin-5-one derivative, 4-(n,n-disubstituted carbamoyl) 1-(substituted sulfonyl)triazolin-5-one derivative, and herbicide containing said derivative as active ingredient” (HOKKO CHEMICAL INDUSTRY CO., LTD., priority 2017, dated 2021):

Key:
Format in all cases: in vivo
Echinochloa crus-galli [1] = experiment: Test Example 11: herbicidal effect test by soil treatment in paddy field; conditions: 120 g/10a active ingredient, 14 days after treatment
Method in brief: (§1)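 Seeds were sown 0-1 cm deep in puddled, fertilised paddy soil in Wagner pots and kept under about 3 cm of flooding in a greenhouse. Diluted emulsifiable concentrate was added dropwise right after sowing at 120 g a.i. per 10 are. Suppression (%) came from dry weight versus untreated pots after 14 days, two replicates.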

Monochoria vaginalis [2] = experiment: as above; conditions: 120 g/10a active ingredient, 14 days after treatment
Method in brief: as §1

Scirpus juncoides [3] = experiment: as above; conditions: 120 g/10a active ingredient, 14 days after treatment
Method in brief: as §1

Lindernia pyxidaria [4] = experiment: as above; conditions: 120 g/10a active ingredient, 14 days after treatment
Method in brief: as §1

Echinochloa crus-galli [5] = experiment: Test Example 12: herbicidal effect test by treatment during growing period in paddy field; conditions: 120 g/10a; treatment seven days after sowing in flooded paddy pot; assessed 14 days after treatment
Method in brief: (§2)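 Read-out: weed suppression (%) = (1 − treated/untreated mean dry weight) × 100, scored 14 days after treatment with two replications. Pots held puddled paddy soil, 30 seeds per species sown 0–1 cm, flooded ~3 cm. Post-emergence dropwise water application at 7 days after sowing, 120 g a.i./10 are.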

Monochoria vaginalis [6] = experiment: as above; conditions: 120 g/10a; treatment seven days after sowing in flooded paddy pot; assessed 14 days after treatment
Method in brief: as §2

Scirpus juncoides [7] = experiment: as above; conditions: 120 g/10a; treatment seven days after sowing in flooded paddy pot; assessed 14 days after treatment
Method in brief: as §2

Lindernia pyxidaria [8] = experiment: as above; conditions: 120 g/10a; treatment seven days after sowing in flooded paddy pot; assessed 14 days after treatment
Method in brief: as §2

Cc1cc(C)c(S(=O)(=O)n2ncn(C(=O)N(c3ccc(Cl)cn3)C(C)C)c2=O)c(C)c1 [Compound 11-889]
Weed suppression rate (%) Echinochloa crus-galli (Echinochloa crus-galli [1]): 100%
Weed suppression rate (%) Monochoria vaginalis (Monochoria vaginalis [2]): 80%
Weed suppression rate (%) Scirpus juncoides (Scirpus juncoides [3]): 90%
Weed suppression rate (%) Lindemia pyxidaria (Lindernia pyxidaria [4]): 100%
Weed suppression rate (%) Echinochloa crus-galli (Echinochloa crus-galli [5]): 100%
Weed suppression rate (%) Monochoria vaginalis (Monochoria vaginalis [6]): 80%
Weed suppression rate (%) Scirpus juncoides (Scirpus juncoides [7]): 90%
Weed suppression rate (%) Lindemia pyxidaria (Lindernia pyxidaria [8]): 70%

CC(C)N(C(=O)n1cnn(S(=O)(=O)c2cccs2)c1=O)c1ccc(F)cc1 [Compound 11-1014]
Weed suppression rate (%) Echinochloa crus-galli (Echinochloa crus-galli [1]): 90%
Weed suppression rate (%) Monochoria vaginalis (Monochoria vaginalis [2]): 80%
Weed suppression rate (%) Scirpus juncoides (Scirpus juncoides [3]): 90%
Weed suppression rate (%) Lindemia pyxidaria (Lindernia pyxidaria [4]): 90%
Weed suppression rate (%) Echinochloa crus-galli (Echinochloa crus-galli [5]): 90%
Weed suppression rate (%) Monochoria vaginalis (Monochoria vaginalis [6]): 80%
Weed suppression rate (%) Scirpus juncoides (Scirpus juncoides [7]): 90%
Weed suppression rate (%) Lindemia pyxidaria (Lindernia pyxidaria [8]): 80%

CC(C)N(C(=O)n1cnn(S(=O)(=O)c2cccs2)c1=O)c1c(F)c(F)cc(F)c1F [Compound 11-1027]
Weed suppression rate (%) Echinochloa crus-galli (Echinochloa crus-galli [1]): 100%
Weed suppression rate (%) Monochoria vaginalis (Monochoria vaginalis [2]): 90%
Weed suppression rate (%) Scirpus juncoides (Scirpus juncoides [3]): 100%
Weed suppression rate (%) Lindemia pyxidaria (Lindernia pyxidaria [4]): 100%
Weed suppression rate (%) Echinochloa crus-galli (Echinochloa crus-galli [5]): 100%
Weed suppression rate (%) Monochoria vaginalis (Monochoria vaginalis [6]): 90%
Weed suppression rate (%) Scirpus juncoides (Scirpus juncoides [7]): 100%
Weed suppression rate (%) Lindemia pyxidaria (Lindernia pyxidaria [8]): 80%

CC(C)N(C(=O)n1cnn(S(=O)(=O)c2cccs2)c1=O)c1ccc(Cl)cc1Br [Compound 11-1034]
Weed suppression rate (%) Echinochloa crus-galli (Echinochloa crus-galli [1]): 100%
Weed suppression rate (%) Monochoria vaginalis (Monochoria vaginalis [2]): 70%
Weed suppression rate (%) Scirpus juncoides (Scirpus juncoides [3]): 100%
Weed suppression rate (%) Lindemia pyxidaria (Lindernia pyxidaria [4]): 90%
Weed suppression rate (%) Echinochloa crus-galli (Echinochloa crus-galli [5]): 90%
Weed suppression rate (%) Monochoria vaginalis (Monochoria vaginalis [6]): 70%
Weed suppression rate (%) Scirpus juncoides (Scirpus juncoides [7]): 70%
Weed suppression rate (%) Lindemia pyxidaria (Lindernia pyxidaria [8]): 70%

Cc1ccc(N(C(=O)n2cnn(S(=O)(=O)c3cccs3)c2=O)C(C)C)c(F)c1 [Compound 11-1036]
Weed suppression rate (%) Echinochloa crus-galli (Echinochloa crus-galli [1]): 90%
Weed suppression rate (%) Monochoria vaginalis (Monochoria vaginalis [2]): 90%
Weed suppression rate (%) Scirpus juncoides (Scirpus juncoides [3]): 90%
Weed suppression rate (%) Lindemia pyxidaria (Lindernia pyxidaria [4]): 90%
Weed suppression rate (%) Echinochloa crus-galli (Echinochloa crus-galli [5]): 90%
Weed suppression rate (%) Monochoria vaginalis (Monochoria vaginalis [6]): 80%
Weed suppression rate (%) Scirpus juncoides (Scirpus juncoides [7]): 90%
Weed suppression rate (%) Lindemia pyxidaria (Lindernia pyxidaria [8]): 80%

CC(C)N(C(=O)n1cnn(S(=O)(=O)c2cccs2)c1=O)c1ccc(C(F)(F)F)cc1Cl [Compound 11-1042]
Weed suppression rate (%) Echinochloa crus-galli (Echinochloa crus-galli [1]): 90%
Weed suppression rate (%) Monochoria vaginalis (Monochoria vaginalis [2]): 80%
Weed suppression rate (%) Scirpus juncoides (Scirpus juncoides [3]): 90%
Weed suppression rate (%) Lindemia pyxidaria (Lindernia pyxidaria [4]): 80%
Weed suppression rate (%) Echinochloa crus-galli (Echinochloa crus-galli [5]): 90%
Weed suppression rate (%) Monochoria vaginalis (Monochoria vaginalis [6]): 80%
Weed suppression rate (%) Scirpus juncoides (Scirpus juncoides [7]): 90%
Weed suppression rate (%) Lindemia pyxidaria (Lindernia pyxidaria [8]): 80%

CC(C)N(C(=O)n1cnn(S(=O)(=O)c2cccs2)c1=O)c1ccc(C#N)cc1Cl [Compound 11-1044]
Weed suppression rate (%) Echinochloa crus-galli (Echinochloa crus-galli [1]): 90%
Weed suppression rate (%) Monochoria vaginalis (Monochoria vaginalis [2]): 90%
Weed suppression rate (%) Scirpus juncoides (Scirpus juncoides [3]): 90%
Weed suppression rate (%) Lindemia pyxidaria (Lindernia pyxidaria [4]): 90%
Weed suppression rate (%) Echinochloa crus-galli (Echinochloa crus-galli [5]): 90%
Weed suppression rate (%) Monochoria vaginalis (Monochoria vaginalis [6]): 80%
Weed suppression rate (%) Scirpus juncoides (Scirpus juncoides [7]): 90%
Weed suppression rate (%) Lindemia pyxidaria (Lindernia pyxidaria [8]): 80%

CC(C)N(C(=O)n1cnn(S(=O)(=O)N(C)C)c1=O)c1ccccc1F [Compound 11-1054]
Weed suppression rate (%) Echinochloa crus-galli (Echinochloa crus-galli [1]): 90%
Weed suppression rate (%) Monochoria vaginalis (Monochoria vaginalis [2]): 80%
Weed suppression rate (%) Scirpus juncoides (Scirpus juncoides [3]): 90%
Weed suppression rate (%) Lindemia pyxidaria (Lindernia pyxidaria [4]): 80%
Weed suppression rate (%) Echinochloa crus-galli (Echinochloa crus-galli [5]): 90%
Weed suppression rate (%) Monochoria vaginalis (Monochoria vaginalis [6]): 80%
Weed suppression rate (%) Scirpus juncoides (Scirpus juncoides [7]): 90%
Weed suppression rate (%) Lindemia pyxidaria (Lindernia pyxidaria [8]): 80%
